Molecules are shown by their SMILES. Read-outs that look alike come from different tables or passages of the source.

One assay addresses T1, DPP-4 (Mus musculus, UniProt P28843).
T1 construct: Blood sample was processed to obtain plasma; from tissue; host or cells: plasma of male ICR mice
The assay can be described thus: Plasma DPP-4 activity in mice after oral dosing. It counts as in vivo, ICR mice. The settings on record: read-out: DPP-4 Relative activity %; for activity at 1 mg/kg: oral 1 mg/kg; for activity at 3 mg/kg: mice plasma, oral 3 mg/kg. The procedure: Some of the exemplary compounds were tested in mice to assess inhibition of DPP-4 activity via plasma DPP-4 activity. Male ICR mice (25-30 g) were used for this study. All the mice were fasted at least 3 hours before study. Mice (n=6/group) received vehicle or at least one of the exemplary compounds by oral gavage. The dosing solutions were 0.15 mg/ml for the 3 mg/kg. Dosing volume was 20 mL/kg of body weight for all doses. The vehicle was distilled water. […] Blood sample was processed to obtain plasma (2000 g, 5 min, 4° C.) within 15 min after sampling.
Plasma was collected and tested by fluoremetry. Before the testing, 80 mM MgCl2 buffer was added into the 5 uL serum samples and pre-incubation for 5 minutes at room temperature, then […] of 0.1 mM substrate Gly-Pro-AMC and 20 μL of buffer were added into them. The fluorescence of the mixture was measured every 3 minutes after mixing (excitation at 380 nm; emission at 460 nm). After 6 times of measurements, a time-fluorescence cure was obtained. The slope of the curve would be the activity of DPP-4 in serum. The DPP-4 activity before administration was 100%. The relative activity of DPP-4 in serum was calculated using the formula below:
Relative DPP-4activity=DPP-4activity after dosing/DPP-4activity before dosing×100%.

The target in a further assay is Recombinant human DPP-IV (Homo sapiens, UniProt P27487). Nature of the assay: DPP-IV assay in vitro (H-Ala-Pro-AFC fluorescence). It counts as biochemical. Particulars: 30 min pre-incubation, H-Ala-Pro-AFC 50 μM. The procedure:
DPP-IV Assay Solutions of test compounds in varying concentrations (10^−5 mol/L, 10^−6 mol/L, 10^−7 mol/L, 10^−8 mol/L, 10^−9 mol/L, 10^−10 mol/L, 10^−11 mol/L, and 10^−12 mol/L) were prepared in dimethyl sulfoxide (DMSO) and then diluted into assay buffer comprising: 10 mM Tris-HCl pH 8.0, 0.2 M NaCl, and 0.1% BSA. Recombinant human DPP-IV (7.8 ng/ml final concentration) was added to the dilutions and pre-incubated for 30 mins at room temperature before the reaction was initiated with H-Ala-Pro-AFC (50 μM final concentration). The total volume of the reaction mixture was 100 μl.
Inhibition constants (IC50) were calculated by GraphPad Prism.

Where [1] appears, read: Table 4 Test 3, mice plasma, 1 h after dosing.
Setting [2] is: Table 4 Test 3, mice plasma, 2 h after dosing.
The mark [3] stands for this setting: Table 4 Test 3, mice plasma, 4 h after dosing.
Setting [4] is: Table 4 Test 3, mice plasma, 6 h after dosing.
[5] abbreviates: Table 4 Test 3, mice plasma, 9 h after dosing.
[6] abbreviates: Table 4 Test 3, mice plasma, 12 h after dosing.
Where [7] appears, read: Table 4 Test 3, mice plasma, 24 h after dosing.
Setting [8] is: Table 4 Test 2, mice plasma, 1 h after dosing.
Where [9] appears, read: Table 4 Test 2, mice plasma, 2 h after dosing.
[10] abbreviates: Table 4 Test 2, mice plasma, 4 h after dosing.
Setting [11] is: Table 4 Test 2, mice plasma, 6 h after dosing.
Setting [12] is: Table 4 Test 2, mice plasma, 9 h after dosing.
The mark [13] stands for this setting: Table 4 Test 2, mice plasma, 24 h after dosing.
Setting [14] is: Table 3, mice plasma, 1 h after dosing.
The mark [15] stands for this setting: Table 3, mice plasma, 2 h after dosing.
[16] abbreviates: Table 3, mice plasma, 4 h after dosing.
The mark [17] stands for this setting: Table 3, mice plasma, 6 h after dosing.
Setting [18] is: Table 3, mice plasma, 9 h after dosing.
The mark [19] stands for this setting: Table 3, mice plasma, 12 h after dosing.
Where [20] appears, read: Table 3, mice plasma, 24 h after dosing.

T1 sequence (P28843 37-760 limits assumed): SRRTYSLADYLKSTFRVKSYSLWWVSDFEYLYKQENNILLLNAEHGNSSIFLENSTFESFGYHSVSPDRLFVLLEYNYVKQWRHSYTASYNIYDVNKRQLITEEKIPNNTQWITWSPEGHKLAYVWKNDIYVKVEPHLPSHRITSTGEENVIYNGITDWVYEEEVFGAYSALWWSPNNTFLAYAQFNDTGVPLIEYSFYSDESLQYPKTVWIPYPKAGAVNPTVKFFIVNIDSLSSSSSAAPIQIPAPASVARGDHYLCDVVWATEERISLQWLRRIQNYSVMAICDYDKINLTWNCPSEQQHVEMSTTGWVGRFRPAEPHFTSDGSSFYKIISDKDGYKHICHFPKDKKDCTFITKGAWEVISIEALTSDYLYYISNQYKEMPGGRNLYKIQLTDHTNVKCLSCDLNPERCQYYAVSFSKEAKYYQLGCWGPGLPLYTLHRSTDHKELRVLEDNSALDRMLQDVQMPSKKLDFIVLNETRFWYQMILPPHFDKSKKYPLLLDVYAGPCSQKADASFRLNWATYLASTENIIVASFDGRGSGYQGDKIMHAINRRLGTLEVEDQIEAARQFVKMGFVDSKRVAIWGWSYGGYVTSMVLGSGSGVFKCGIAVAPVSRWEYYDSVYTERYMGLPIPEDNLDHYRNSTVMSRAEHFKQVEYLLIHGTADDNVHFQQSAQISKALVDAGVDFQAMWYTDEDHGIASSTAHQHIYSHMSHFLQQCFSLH
Sequence of Recombinant human DPP-IV (P27487 whole entry): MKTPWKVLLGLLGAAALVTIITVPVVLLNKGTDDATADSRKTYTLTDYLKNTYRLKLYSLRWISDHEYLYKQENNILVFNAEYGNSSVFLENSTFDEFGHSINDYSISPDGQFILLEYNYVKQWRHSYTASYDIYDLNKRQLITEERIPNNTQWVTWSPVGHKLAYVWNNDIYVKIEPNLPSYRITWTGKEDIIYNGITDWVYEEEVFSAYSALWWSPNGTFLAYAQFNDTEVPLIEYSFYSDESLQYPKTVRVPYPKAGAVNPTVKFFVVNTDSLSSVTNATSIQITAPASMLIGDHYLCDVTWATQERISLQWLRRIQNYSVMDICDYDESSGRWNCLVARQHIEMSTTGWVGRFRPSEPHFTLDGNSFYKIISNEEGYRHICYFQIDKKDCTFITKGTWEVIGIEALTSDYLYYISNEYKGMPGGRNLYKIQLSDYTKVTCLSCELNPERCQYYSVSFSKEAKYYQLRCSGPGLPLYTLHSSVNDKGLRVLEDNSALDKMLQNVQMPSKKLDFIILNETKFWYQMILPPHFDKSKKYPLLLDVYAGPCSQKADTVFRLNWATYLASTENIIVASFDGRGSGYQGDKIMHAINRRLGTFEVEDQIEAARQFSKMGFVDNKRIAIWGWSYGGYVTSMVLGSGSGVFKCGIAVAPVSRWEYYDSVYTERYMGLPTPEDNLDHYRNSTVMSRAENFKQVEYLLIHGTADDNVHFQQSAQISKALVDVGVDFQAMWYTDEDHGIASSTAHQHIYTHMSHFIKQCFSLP

For `N[C@H]1Cc2c(nc3cc(-c4nnco4)ccn23)C[C@@H]1c1cc(F)c(F)cc1F` [Example 1, (7R,8S)-3-(1,3,4-Oxadiazol-2-yl)-7-(2,4,5-trifluorophenyl)-6,7,8,9-tetrahydrobenzo[4,5]imidazo[1,2-a]pyridine-8-amine], the activity at 1 mg/kg amounted to 11.9 ± 1.2% on DPP-4 (setting [1]); 7.4 ± 1% at DPP-4 (setting [2]); 8.6 ± 0.8% at DPP-4 (setting [3]); 8.4 ± 1.3% at DPP-4 (setting [4]); 9 ± 1.2% on DPP-4 (setting [5]); 8.8 ± 0.9% on DPP-4 (setting [6]). In addition, the activity at 1 mg/kg on DPP-4 (setting [7]) is 14.4 ± 1.8%. Further, the activity at 3 mg/kg at DPP-4 (1 h after dosing) was determined as 38.7 ± 4.2%; on DPP-4 (2 h after dosing) it was 34.9 ± 3%; at DPP-4 (3 h after dosing), 31.2 ± 2.3%; on DPP-4 (5 h after dosing), 39.2 ± 3.3%. Also, the IC50 on Recombinant human DPP-IV was determined as 0.8 nM.

On to `Cc1nnc(-c2ccn3c4c(nc3c2)C[C@H](c2cc(F)c(F)cc2F)[C@@H](N)C4)o1` [Example 2, (7R,8S)-3-(5-Methyl-1,3,4-oxadiazol-2-yl)-7-(2,4,5-trifluorophenyl)-6,7,8,9-tetrahydrobenzo[4,5]imidazo[1,2-a]pyridin-8-amine], for which the activity at 1 mg/kg at DPP-4 (setting [8]) amounted to 9.4 ± 1.8%; on DPP-4 (setting [9]), 11.6 ± 2%; on DPP-4 (setting [10]), 7.7 ± 2.1%; on DPP-4 (setting [11]), 9.6 ± 1.3%; at DPP-4 (setting [12]), 7.8 ± 2.7%; on DPP-4 (setting [13]), 16.4 ± 3.7%. In addition, the activity at 3 mg/kg on DPP-4 (1 h after dosing) turned out to be 17 ± 3.3%; on DPP-4 (2 h after dosing), 22.6 ± 3.1%; on DPP-4 (3 h after dosing), 22.6 ± 1.1%; at DPP-4 (5 h after dosing) it was 25.9 ± 3.8%. The half-maximal inhibitory concentration (IC50) on Recombinant human DPP-IV was determined as 1.2 nM.

On to `N[C@H]1Cc2c(nc3cc(-c4ncno4)ccn23)C[C@@H]1c1cc(F)c(F)cc1F` [Example 5, (7R,8S)-3-(1,2,4-Oxadiazol-5-yl)-7-(2,4,5-trifluorophenyl)-6,7,8,9-tetrahydrobenzo[4,5]imidazo[1,2-a]pyridine-8-amine], for which the IC50 at Recombinant human DPP-IV amounted to 1 nM.

For `N[C@H]1Cc2c(nc3cc(-c4nc[nH]n4)ccn23)C[C@@H]1c1cc(F)c(F)cc1F` [Example 7, (7R,8S)-3-(1H-1,2,4-Triazol-3-yl)-7-(2,4,5-trifluorophenyl)-6,7,8,9-tetrahydrobenzo[4,5]imidazo[1,2-a]pyridine-8-amine], the IC50 at Recombinant human DPP-IV worked out at 0.9 nM.

As to `Cc1n[nH]c(-c2ccn3c4c(nc3c2)C[C@H](c2cc(F)c(F)cc2F)[C@@H](N)C4)n1` [Example 8, (7R,8S)-3-(3-methyl-1H-1,2,4-Triazol-5-yl)-7-(2,4,5-trifluorophenyl)-6,7,8,9-tetrahydrobenzo[4,5]imidazo[1,2-a]pyridine-8-amine], on Recombinant human DPP-IV, the IC50 is 1.7 nM.

`Cn1ncnc1-c1ccn2c3c(nc2c1)C[C@H](c1cc(F)c(F)cc1F)[C@@H](N)C3` [Example 9, (7R,8S)-3-(1-Methyl-1H-1,2,4-triazol-5-yl)-7-(2,4,5-trifluorophenyl)-6,7,8,9-tetrahydrobenzo[4,5]imidazo[1,2-a]pyridine-8-amine]: the IC50 at Recombinant human DPP-IV came to 2 nM.

In the case of `N[C@H]1Cc2c(nc3cc(-c4nnn[nH]4)ccn23)C[C@@H]1c1cc(F)c(F)cc1F` [Example 10, (7R,8S)-3-(1H-Tetrazol-5-yl)-7-(2,4,5-trifluorophenyl)-6,7,8,9-tetrahydrobenzo[4,5]imidazo[1,2-a]pyridin-8-amine], the IC50 at Recombinant human DPP-IV was 0.6 nM.

For `N[C@H]1Cc2c(nc3cc(-c4n[nH]c(=O)o4)ccn23)C[C@@H]1c1cc(F)c(F)cc1F` [Example 12, 5-((7R,8S)-8-Amino-7-(2,4,5-trifluorophenyl)-6,7,8,9-tetrahydrobenzo[4,5]imidazo[1,2-a]pyridin-3-yl)-1,3,4-oxadiazol-2(3H)-one], the activity at 1 mg/kg at DPP-4 (setting [14]) worked out at 7.4 ± 1.2%; on DPP-4 (setting [15]) it was 7 ± 1.1%; on DPP-4 (setting [16]), 6.4 ± 1.9%; on DPP-4 (setting [17]), 10.5 ± 1.7%; on DPP-4 (setting [18]), 10.1 ± 1.2%; on DPP-4 (setting [19]) it was 15 ± 1.6%. The activity at 1 mg/kg at DPP-4 (setting [20]) was found to be 38.3 ± 5.6%; at DPP-4 (setting [1]), 7.4 ± 1.2%; at DPP-4 (setting [2]), 7 ± 1.1%; on DPP-4 (setting [3]) it was 6.4 ± 1.9%; on DPP-4 (setting [4]), 10.5 ± 1.7%; on DPP-4 (setting [5]), 10.1 ± 1.2%. The activity at 1 mg/kg at DPP-4 (setting [6]) worked out at 15 ± 1.6%; on DPP-4 (setting [7]), 38.3 ± 5.6%.

On to `Cn1nc(-c2ccn3c4c(nc3c2)C[C@H](c2cc(F)c(F)cc2F)[C@@H](N)C4)oc1=O` [Example 13, 5-((7R,8S)-8-Amino-7-(2,4,5-trifluorophenyl)-6,7,8,9-tetrahydrobenzo[4,5]imidazo[1,2-a]pyridin-3-yl)-3-methyl-1,3,4-oxadiazol-2(3H)-one], for which the activity at 1 mg/kg stood at 8.5 ± 2.2% at DPP-4 (setting [14]); 5 ± 1.7% on DPP-4 (setting [15]); 7 ± 2.7% at DPP-4 (setting [16]); 4.4 ± 2.3% on DPP-4 (setting [17]); 6.1 ± 1.7% at DPP-4 (setting [18]); 8.5 ± 1.3% on DPP-4 (setting [19]). Also, the activity at 1 mg/kg on DPP-4 (setting [20]) was found to be 20.2 ± 0.6%; at DPP-4 (setting [1]), 8.5 ± 2.2%; at DPP-4 (setting [2]) it was 5 ± 1.7%; on DPP-4 (setting [3]) it was 7 ± 2.7%; at DPP-4 (setting [4]), 4.4 ± 2.3%; on DPP-4 (setting [5]), 6.1 ± 1.7%. For the same compound, the activity at 1 mg/kg was found to be 8.5 ± 1.3% on DPP-4 (setting [6]) and 20.2 ± 0.6% on DPP-4 (setting [7]).

As to `NC(=O)c1ccn2c3c(nc2c1)C[C@H](c1cc(F)c(F)cc1F)[C@@H](N)C3` [Refference 1, (7R,8S)-8-amino-7-(2,4,5-trifluorophenyl)-6,7,8,9-tetrahydrobenzo[4,5]imidazo[1,2-a]pyridine-3-carboxamide, reference compound], the activity at 1 mg/kg amounted to 20.5 ± 3% on DPP-4 (Table 4 Test 1, mice plasma, 1 h after dosing); 18.1 ± 2.2% at DPP-4 (Table 4 Test 1, mice plasma, 2 h after dosing); 19.9 ± 2% on DPP-4 (Table 4 Test 1, mice plasma, 4 h after dosing); 25.3 ± 2% on DPP-4 (Table 4 Test 1, mice plasma, 6 h after dosing); 33.3 ± 1.5% on DPP-4 (Table 4 Test 1, mice plasma, 9 h after dosing); 49.5 ± 2.8% on DPP-4 (Table 4 Test 1, mice plasma, 12 h after dosing). The activity at 1 mg/kg on DPP-4 (Table 4 Test 1, mice plasma, 24 h after dosing) came to 90.7 ± 3.2%; on DPP-4 (setting [8]) it was 15.5 ± 1.1%; on DPP-4 (setting [9]), 16.5 ± 2%; at DPP-4 (setting [10]) it was 14.9 ± 2.9%; at DPP-4 (setting [11]), 23.3 ± 3.8%; at DPP-4 (setting [12]), 34.5 ± 2.7%. Further, the activity at 1 mg/kg at DPP-4 (setting [13]) was found to be 91.1 ± 4.3%; at DPP-4 (setting [1]), 17.5 ± 1.4%; on DPP-4 (setting [2]), 17 ± 1.7%; at DPP-4 (setting [3]), 22 ± 2.1%; at DPP-4 (setting [4]), 33.2 ± 2.7%; on DPP-4 (setting [5]), 42.5 ± 2.2%. In addition, the values for the activity at 1 mg/kg at DPP-4 (setting [6]) and on DPP-4 (setting [7]) were 58 ± 2.6% and 81.9 ± 7.4%, respectively.

For the origin of these results see patent publication US20150284385A1, “CERTAIN DIPEPTIDYL PEPTIDASE INHIBITORS” (SHANGHAI FOCHON PHARMACEUTICAL CO LTD, priority 2012, published 2015).
